Assay results taken from US20250215029A1 (Recludix Pharma, Inc., priority 2022, published 2025).
Where two headings read alike, the source gives them in different places.

How the values were obtained:
[1] = biological target: T1, Recombinant STAT3 protein (STAT3 (G127-I722)) (Homo sapiens, UniProt P40763); test: STAT3 Fluorescence Polarization (FP) Assay; type: binding; conditions: probe 5-FAM-GpYLPQTV-NH2 2 nM, 45-minute incubation
T1 construct: Recombinant STAT3 protein (STAT3 (G127-I722))
Outline: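 Read-out is fluorescence polarization (mP) after 45 min at room temperature, with IC50 fitted by nonlinear regression against log compound concentration. Mixture: 25 nM STAT3 (G127-I722), 2 nM 5-FAM-GpYLPQTV-NH2 phosphopeptide, 10 mM HEPES pH 7.4 buffer, 1% DMSO.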

[2] = biological target: T2, Recombinant STAT6 protein (STAT6 (W123-T658)) (Homo sapiens, UniProt P42226); test: STAT6 Fluorescence Polarization (FP) Assay; type: binding; conditions: probe 5-FAM-Ap[…]-NH2 2 nM, 45-minute incubation
T2 construct: Recombinant STAT6 protein (STAT6 (W123-T658))
T2 sequence (P42226 123-658): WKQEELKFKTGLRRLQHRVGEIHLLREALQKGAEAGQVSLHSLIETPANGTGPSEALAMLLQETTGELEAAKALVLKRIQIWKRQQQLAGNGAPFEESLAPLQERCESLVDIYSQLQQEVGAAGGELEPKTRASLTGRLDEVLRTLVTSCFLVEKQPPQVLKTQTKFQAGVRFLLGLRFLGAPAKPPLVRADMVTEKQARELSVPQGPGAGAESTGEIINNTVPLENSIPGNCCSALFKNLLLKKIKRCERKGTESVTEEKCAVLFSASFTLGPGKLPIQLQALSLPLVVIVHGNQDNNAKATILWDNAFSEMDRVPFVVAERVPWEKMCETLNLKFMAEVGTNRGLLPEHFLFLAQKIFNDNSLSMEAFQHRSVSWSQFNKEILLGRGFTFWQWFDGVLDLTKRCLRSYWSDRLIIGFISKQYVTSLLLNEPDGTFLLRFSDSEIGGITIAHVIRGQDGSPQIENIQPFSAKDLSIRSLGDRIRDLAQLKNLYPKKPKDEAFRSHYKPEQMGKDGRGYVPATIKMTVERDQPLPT
Outline: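 Protein-probe mix (250 nM STAT6 W123-T658, 2 nM 5-FAM-pTyr peptide) in 10 mM HEPES pH 7.4, 50 mM NaCl, 1 mM EDTA, 0.05% Tween 20, 2 mM DTT; added to compound dilution series, 1% DMSO final; 45 min RT; FP read; IC50 via nonlinear regression.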

[3] = STAT3 (G127-I722) 25 nM, read-out: STAT3 (FP assay IC50 class)
[4] = STAT6 (W123-T658) 250 nM, read-out: STAT6 (FP assay IC50 class)
[5] = STAT3 25 nM, read-out: STAT3 (FP assay IC50)
[6] = STAT6 250 nM, read-out: STAT6 (FP assay IC50)

T1 sequence (P40763 127-722): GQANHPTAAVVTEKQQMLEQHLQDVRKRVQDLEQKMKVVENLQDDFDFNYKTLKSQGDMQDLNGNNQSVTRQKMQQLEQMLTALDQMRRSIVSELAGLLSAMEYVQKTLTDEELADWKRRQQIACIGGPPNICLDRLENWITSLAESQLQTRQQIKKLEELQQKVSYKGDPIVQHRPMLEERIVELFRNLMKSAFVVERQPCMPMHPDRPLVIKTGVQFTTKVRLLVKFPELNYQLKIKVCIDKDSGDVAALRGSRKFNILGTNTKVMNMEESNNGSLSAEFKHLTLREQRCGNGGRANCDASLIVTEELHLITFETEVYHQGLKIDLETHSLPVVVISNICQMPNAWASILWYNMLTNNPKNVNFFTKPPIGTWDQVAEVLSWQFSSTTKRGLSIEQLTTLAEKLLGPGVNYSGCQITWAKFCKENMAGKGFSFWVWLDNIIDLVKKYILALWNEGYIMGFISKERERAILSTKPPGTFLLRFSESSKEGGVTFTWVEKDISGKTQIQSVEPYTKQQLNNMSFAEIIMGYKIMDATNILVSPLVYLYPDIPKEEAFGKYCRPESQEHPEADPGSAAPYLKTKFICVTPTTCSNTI

| Structure (SMILES) | IC50 [1, 3] | IC50 [2, 4] | IC50 [1, 5] | IC50 [2, 6] |
| --- | --- | --- | --- | --- |
| O=C(N[C@H]1CCCC[C@H]2CC[C@@H](C(=O)N[C@@H]3CCN(C(=O)OC4CC4)C3)N2C1=O)c1cc2cc(C(F)P(=O)(O)O)ccc2s1 (stereo partly drawn) [Compound 527, ((2-(((3S,6S,10aS)-3-(((R)-1-(cyclopropoxycarbonyl)pyrrolidin-3-yl)carbamoyl)-5-oxodecahydropyrrolo[1,2-a]azocin-6-yl)carbamoyl)benzo[b]thiophen-5-yl)fluoromethyl)phosphonic acid] | 1 to 10 µM | 0.3 to 3 µM | – | – |
| O=C(N[C@H]1CCC[C@H]2CC[C@@H](C(=O)N3CCC(c4cc[nH]n4)CC3)N2C1=O)c1cc2cc(C(F)P(=O)(O)O)ccc2s1 (stereo partly drawn) [Compound 760, ((2-(((3S,6S,9aS)-3-(4-(1H-pyrazol-3-yl)piperidine-1-carbonyl)-5-oxooctahydro-1H-pyrrolo[1,2-a]azepin-6-yl)carbamoyl)benzo [b]thiophen-5-yl)fluoromethyl) phosphonic acid] | 1 to 10 µM | 3 to 30 µM | – | – |
| O=C(N[C@H]1CCC[C@H]2CC[C@@H](C(=O)N3CC(c4cnccc4Oc4ccccc4)C3)N2C1=O)c1cc2cc(C(F)P(=O)(O)O)ccc2s1 (stereo partly drawn) [Compound 699, (fluoro(2-(((3S,6S,9aS)-5-oxo-3-(3-(4-phenoxypyridin-3-yl)azetidine-1-carbonyl)octahydro-1H-pyrrolo[1,2-a]azepin-6-yl)carbamoyl)benzo [b]thiophen-5-yl)methyl) phosphonic acid] | < 0.1 µM | 3 to 30 µM | – | – |
| COc1cc(F)ncc1C1CN(C(=O)[C@@H]2CC[C@@H]3CCC[C@H](NC(=O)c4cc5cc(CP(=O)(O)O)ccc5s4)C(=O)N32)C1 [Compound 577, ((2-(((3S,6S,9aS)-3-(3-(6-fluoro-4-methoxypyridin-3-yl)azetidine-1-carbonyl)-5-oxooctahydro-1H-pyrrolo[1,2-a]azepin-6-yl)carbamoyl)benzo[b]thiophen-5-yl)methyl)phosphonic acid] | 1 to 10 µM | 3 to 30 µM | – | – |
| O=C(N[C@H]1CCCC[C@H]2CC[C@@H](C(=O)NCc3cnc4[nH]cnc4c3)N2C1=O)c1cc2cc(C(F)P(=O)(O)O)ccc2s1 (stereo partly drawn) [Compound 521, ((2-(((3S,6S,10aS)-3-(((3H-imidazo[4,5-b]pyridin-6-yl)methyl)carbamoyl)-5-oxodecahydropyrrolo[1,2-a]azocin-6-yl)carbamoyl)benzo[b]thiophen-5-yl)fluoromethyl)phosphonic acid] | < 0.1 µM | 3 to 30 µM | – | – |
| O=C(N[C@H]1CCCC[C@H]2CC[C@@H](C(=O)N3C(=O)N(c4cccc5c4OC(F)(F)O5)C(=O)C34CC4)N2C1=O)c1cc2cc(C(F)P(=O)(O)O)ccc2s1 (stereo partly drawn) [Compound 601, ((2-(((3S,6S,10aS)-3-(6-(2,2-difluorobenzo[d][1, 3]dioxol-4-yl)-5,7-dioxo-4,6-diazaspiro[2.4]heptane-4-carbonyl)-5-oxodecahydropyrrolo [1,2-a]azocin-6-yl)carbamoyl)benzo [b]thiophen-5-yl)fluoromethyl) phosphonic acid] | 1 to 10 µM | ≤ 0.3 µM | – | – |
| O=C(N[C@H]1CCCC[C@H]2CC[C@@H](C(=O)NCc3n[nH]c4ncccc34)N2C1=O)c1cc2cc(C(F)(F)P(=O)(O)O)ccc2s1 [Compound 37, ((2-(((3S,6S,10aS)-3-(((1H-pyrazolo[3,4-b]pyridin-3-yl)methyl)carbamoyl)-5-oxodecahydro-pyrrolo[1,2-a]azocin-6-yl)carbamoyyl)benzo[b]thiophen-5-yl)difluoro-methyl) phosphonic acid] | – | – | 0.1 to 1 µM | 0.3 to 3 µM |
| N#C[C@H]1[C@H](c2ccccc2)CN(C(=O)[C@@H]2CC[C@@H]3CCC[C@H](NC(=O)c4cc5cc(CP(=O)(O)O)ccc5s4)C(=O)N32)C12CC2 [Compound 922, ((2-(((3S,6S,9aS)-3-((6R,7S)-7-cyano-6-phenyl-4-azaspiro[2.4]heptane-4-carbonyl)-5-oxooctahydro-1H-pyrrolo[1,2-a]azepin-6-yl)carbamoyl)benzo [b]thiophen-5-yl)methyl) phosphonic acid] | 1 to 10 µM | 0.3 to 3 µM | – | – |
| O=C(N[C@H]1CC[C@H](O)C[C@H]2CC[C@@H](C(=O)N3CC(C(=O)N4CCOCC4)C3)N2C1=O)c1cc2cc(C(F)(F)P(=O)(O)O)ccc2s1 [Compound 5, (difluoro(2-(((3S,6S,9S,10aR)-9-hydroxy-3-(3-(morpholine-4-carbonyl)azetidine-1-carbonyl)-5-oxodecahydropyrrolo [1,2-a]azocin-6-yl)carbamoyl)benzo[b]thiophen-5-yl)methyl)phosphonic acid] | – | – | 0.1 to 1 µM | 3 to 30 µM |
| O=C(N[C@H]1CCC[C@H]2CC[C@@H](C(=O)N3CC(c4cccnc4)C3)N2C1=O)c1cc2nc(CP(=O)(O)O)ccc2s1 [Compound 208, ((2-(((3S,6S,9aS)-5-oxo-3-(3-(pyridin-3-yl)azetidine-1-carbonyl)octahydro-1H-pyrrolo[1,2-a]azepin-6-yl)carbamoyl)thieno[3,2-b]pyridin-5-yl)methyl)phosphonic acid] | 1 to 10 µM | 3 to 30 µM | – | – |
| CN(C(=O)[C@@H]1CC[C@@H]2CCCC[C@H](NC(=O)c3cc4cc(C(F)(F)P(=O)(O)O)ccc4s3)C(=O)N21)c1ccc2nnccc2c1 [Compound 24, ((2-(((3S,6S,10aS)-3-(cinnolin-6-yl (methyl)carbamoyl)-5-oxodecahydropyrrolo [1,2-a]azocin-6-yl)carbamoyl)benzo[b]thiophen-5-yl)difluoromethyl) phosphonic acid] | – | – | 0.1 to 1 µM | ≤ 0.3 µM |
| C[C@@H]1C[C@H]2CC[C@@H](C(=O)N3CC(c4cccnc4)C3)N2C(=O)[C@@H](NC(=O)c2cc3cc(C(F)(F)P(=O)(O)O)ccc3s2)C1 (single isomer, unassigned) [Compound 110, (difluoro(2-(((3S,6S,8R,9aR)-8-methyl-5-oxo-3-(3-(pyridin-3-yl)azetidine-1-carbonyl)octahydro-1H-pyrrolo[1,2-a]azepin-6-yl)carbamoyl)benzo[b]thiophen-5-yl)methyl) phosphonic acid or (difluoro(2-(((3S,6S,8S,9aR)-8-methyl-5-oxo-3-(3-(pyridin-3-yl)azetidine-1-carbonyl)octahydro-1H-pyrrolo[1,2-a]azepin-6-yl)carbamoyl)benzo[b]thiophen-5-yl)methyl) phosphonic acid] | – | – | < 0.1 µM | 3 to 30 µM |
| O=C(N[C@H]1CCCC[C@H]2CC[C@@H](C(=O)N3C[C@H](c4cccnc4)CC34CC4)N2C1=O)c1cc2cc([C@@H](F)P(=O)(O)O)ccc2s1 (single isomer, unassigned) [Compound 909] | 1 to 10 µM | ≤ 0.3 µM | – | – |
| O=C(N[C@H]1CCCC[C@H]2CC[C@@H](C(=O)N3CC(c4cc[nH]c(=O)c4)CC34CC4)N2C1=O)c1ccc2ccc(C(F)(F)P(=O)(O)O)cc2c1 (stereo partly drawn) [Compound 877, (difluoro(7-(((3S,6S,10aS)-5-oxo-3-(6-(2-oxo-1,2-dihydropyridin-4-yl)-4-azaspiro[2.4]heptane-4-carbonyl)decahydropyrrolo[1,2-a]azocin-6-yl)carbamoyl)naphthalen-2-yl)methyl) phosphonic acid] | 1 to 10 µM | ≤ 0.3 µM | – | – |
